Read-outs that look alike come from different tables or passages of the source.
What was measured:
[1] = system: P. berghei ookinete development; conditions: for % inhibition, Replicate A / % inhibition, Replicate B: primary screen at 1 μM
[2] = system: 3D7-strain P. falciparum asexual parasites; experiment: P. falciparum asexual growth inhibition assay (Pf GIA); type: cell-based, Plasmodium falciparum; conditions: dose response confirmation; read-out: Pf asexual growth inhibition assays IC50
In short: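 Parasites at 0.25% parasitemia, 2% hematocrit in Albumax-supplemented RPMI were exposed to compounds in dose response for 72 h at 37°C under 5% CO2/5% O2. Viability was read as LDH activity (NBT/diaphorase, A650 after freeze-thaw). Percent inhibition was calculated against chloroquine and DMSO controls, mean of three biological replicates.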

[3] = system: HepG2 cells; experiment: HepG2 cytotoxicity assay; conditions: for IC50: read-out: HepG2 cytotoxicity assay IC50, dose response confirmation; for Pb ODA (this manuscript) HepG2 cytoxicity: HepG2 cytotoxicity listed with the Pb ODA data set (this manuscript)
In short: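 Cells are plated at 2,500 per well on compound-treated plates in MEM containing 10% fetal bovine serum and 1% NEAA, then incubated 48 h at 37°C.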

[4] = read-out: Pb ODA IC50, this manuscript
[5] = read-out: Pb Ookinete development assay IC50, dose response confirmation
[6] = HepG2 values of the three screens unified
[7] = read-out: Pb ODA (this manuscript) IC50, P. berghei ookinete development assay, this manuscript
[8] = unified HepG2 value across the three screens

| SMILES | Is compound selective in assay? Pb ODA active? ([1]; 1: YES, 0: NO) | % inhibition, Replicate A [1] [%] | % inhibition, Replicate B [1] [%] | IC50 [1, 4] [nM] | IC50 [1, 5] [nM] | IC50 [2] [nM] | HepG2 cytoxicity (Pb ODA, this manuscript) [3] [µM] | Unified cytotox [3, 6] [µM] | IC50 [3] [nM] | Is compound selective in assay? Pb ODA active? [1] | IC50 [1, 7] [nM] | Pb ODA (this manuscript) HepG2 cytoxicity [3] [µM] | Unified cytotox [3, 8] [µM] |
| --- | --- | --- | --- | --- | --- | --- | --- | --- | --- | --- | --- | --- | --- |
| Cc1[nH]c(C)c(-c2ccc(CCc3ccc(C(F)(F)F)cc3)nc2)c(=O)c1Cl [TCMDC-136051] | 1 (1: YES) | 100.56 | 100.86 | 140 | 144 | 52 | 56.89 | 56.89 | 56900 |  |  |  |  |
| CC(=O)c1ccc(Nc2c(C(N)=O)cnc3cc(-c4c(C)noc4C)ccc23)cc1 [TCMDC-136058] |  | 86.92 | 80.92 |  | 3200 | 1350 |  |  | 100000 | 1 (key: 1: YES; 0: NO) | 3200 | 100.00 |  |
| Cc1[nH]c(C)c(-c2ccc(-c3ccc(OC(F)(F)F)cc3)cc2)c(=O)c1Cl [TCMDC-136060] | 1 (1: YES) | 87.72 | 84.45 | 53.8 | 54 | 77 | 64.57 | 64.57 | 64600 |  |  |  |  |
| COc1ccc(Oc2ccc(-c3c(C)[nH]c(C)c(Cl)c3=O)cc2)cc1 [TCMDC-136134] | 1 (1: YES) | 121.16 | 100.57 | 420 | 422 | 7.4 |  | 100.00 | 100000 |  |  |  |  |
| Cc1[nH]c(C)c(-c2ccc(-c3ccccc3Cl)nc2)c(=O)c1Br [TCMDC-136157] | 0 (0: NO) | 96.17 | 90.55 | 430 | 432 | 48 | 0.14 | 0.14 | 140 |  |  |  |  |
| Cc1[nH]c(C)c(-c2ccc(-c3ccc(Cl)cc3)nc2)c(=O)c1Br [TCMDC-136159] | 1 (1: YES) | 98.54 | 60.48 |  | 940 | 625 |  | 100.00 | 100000 |  |  |  |  |
| Cc1[nH]c(C)c(-c2ccc(-c3cccc(Cl)c3)nc2)c(=O)c1Br [TCMDC-136160] | 1 (1: YES) | 97.52 | 67.64 | 2090 | 2090 | 251 |  | 100.00 | 100000 |  |  |  |  |
| Cc1[nH]c(C)c(-c2ccc(-c3ccc4c(c3)OCO4)nc2)c(=O)c1Br [TCMDC-136161] | 1 (1: YES) | 101.58 | 91.12 | 1430 | 1430 | 646 |  | 100.00 | 100000 |  |  |  |  |
| CCCCN(C)CC#Cc1ccc2[nH]c(C)c(Cl)c(=O)c2c1 [TCMDC-136185] | 1 (1: YES) | 106.94 | 101.22 | 210 | 207 | 49 |  |  | 3090 |  |  |  | 3.09 |
| Cc1[nH]c2ccc(-c3ccc(N(C)C)cc3)cc2c(=O)c1Cl [TCMDC-136188] | 1 (1: YES) | 79.29 | 60.77 | 550 | 547 | 227 |  |  | 100000 |  |  |  | 100.00 |
| Cc1[nH]cc(Br)c(=O)c1-c1ccc(Oc2ccccc2)cc1 [TCMDC-136196] | 1 (1: YES) | 91.11 | 82.53 | 370 | 369 | 422 |  | 100.00 | 100000 |  |  |  |  |
| COc1ccc2ncc(F)c(CCN3CC[C@H](NCc4cc(C#N)c5c(c4)OCCO5)[C@H](O)C3)c2c1 [TCMDC-136207] | 1 (1: YES) | 67.99 | 58.62 | 750 | 747 | 795 |  |  | 38000 |  |  |  | 38.02 |
| COc1ccc2ncc(F)c(CCN3CCC(NCc4cc(C)c5c(c4)OCCO5)CC3)c2n1.Cl [TCMDC-136209] |  | 56.92 | 30.84 |  | 1740 | 449 |  |  | 21400 | 1 (key: 1: YES; 0: NO) | 1740 | 21.38 |  |
| COc1ccc2ncc(F)c(CCN3CCC(NCc4cc(Br)c5c(c4)OCCO5)CC3)c2n1.Cl [TCMDC-136211] |  | 36.10 | 50.60 |  | 3400 | 239 |  |  | 14400 | 0 (key: 1: YES; 0: NO) | 3390 | 14.45 |  |
| CCCCN(C)CC#Cc1ccc(-c2ccc3[nH]c(C)c(Br)c(=O)c3c2)cn1 [TCMDC-136285] | 1 (1: YES) | 73.89 | 66.49 | 1020 | 1020 | 1060 |  |  | 100000 |  |  |  | 100.00 |
| Cc1[nH]c(C)c(-c2ccc(-c3cccc(OC(F)(F)F)c3)nc2)c(=O)c1Cl [TCMDC-136286] | 1 (1: YES) | 104.87 | 108.75 | 300 | 303 | 258 | 8.51 | 8.51 | 8510 |  |  |  |  |
| Cc1[nH]c(C)c(-c2ccc(-c3cccc(Cl)c3)nc2)c(=O)c1Cl [TCMDC-136300] | 1 (1: YES) | 90.77 | 81.67 | 680 | 675 | 203 | 56.23 | 56.23 | 56200 |  |  |  |  |
| Cc1[nH]c(C)c(-c2ccc(-c3ccc(Cl)cc3)nc2)c(=O)c1Cl [TCMDC-136301] | 1 (1: YES) | 94.15 | 37.57 | 960 | 963 | 193 |  | 100.00 | 100000 |  |  |  |  |
| Cc1[nH]c(C)c(-c2ccc(-c3ccccc3Cl)nc2)c(=O)c1Cl [TCMDC-136303] | 1 (1: YES) | 118.12 | 98.57 | 230 | 229 | 248 |  | 100.00 | 100000 |  |  |  |  |
| COc1ccc2ncc(F)c(NC(=O)C3CCC(NCc4cc5c(F)cccc5[nH]4)CC3)c2n1.Cl (stereo not drawn) [TCMDC-136354] |  | 86.49 | 82.69 |  | 252 | 475 |  |  | 3630 | 1 (key: 1: YES; 0: NO) | 250 | 3.63 |  |
| COc1ccc2ncc(F)c(NC(=O)C3CCC(NCc4cc5cc(F)cc(F)c5[nH]4)CC3)c2n1.Cl (stereo not drawn) [TCMDC-136455] |  | 109.55 | 94.56 |  | 1020 | 2430 |  |  | 15500 | 1 (key: 1: YES; 0: NO) | 1020 | 15.49 |  |
| CN1CCN(CC(=O)Nc2ccc(-c3ccc(-c4nc5ccccc5[nH]4)cc3)cc2)CC1 [TCMDC-136979] | 0 (0: NO) | 58.34 | 20.87 | 4190 | 4190 | 1110 |  |  | 21600 |  |  |  | 21.63 |
| Cc1cc(=O)c2cc(-c3ccc(OC(F)(F)F)cc3)ccc2[nH]1 [TCMDC-137042] | 1 (1: YES) | 37.82 | 64.25 | 6380 | 6380 | 2190 |  |  | 100000 |  |  |  | 100.00 |
| Cl.c1ccc(Oc2ccc(Nc3nncc4ccccc34)cc2)cc1 [TCMDC-137229] | 1 (1: YES) | 75.48 | 62.89 | 690 | 692 | 544 |  |  | 100000 |  |  |  | 100.00 |
| Cc1c(Cc2ccccc2Br)cnc2nc(N)nc(N)c12.Cl [TCMDC-137244] |  | 44.00 | 63.36 |  | 8490 | 4 |  |  | 7.76 | 0 (key: 1: YES; 0: NO) | 8490 | 0.00776 |  |

— publication PMC6753678, “Fueling Open Innovation for Malaria Transmission-Blocking Drugs: Hundreds of Molecules Targeting Early Parasite Mosquito Stages” (Frontiers in Microbiology, 2019)
